According to patent publication US20240115649A1, “CASPASE INHIBITION TO ENHANCE REGENERATION AND REPAIR AFTER SKIN OR GUT INJURY AND TO TREAT BACTERIAL OR VIRAL INFECTIONS” (The Johns Hopkins University, priority 2020, published 2024):
Where a SMILES comes first, the peptide text is derived from it. The star is where a group is joined. Cbz = O=C(OCc1ccccc1)*; CH2F = FC*

Tests used:
BMDMs = assay: BMDM cultures with live S. aureus ± caspase inhibitors; details: live S. aureus 6 hours, Q-VD-OPH 10 μg/mL, Emricasan 9 μg/mL
[1] = tested on: mouse epithelial keratinocytes; assay: Mouse epithelial keratinocyte culture (qRT-PCR, immunoblot); details: for IL-36α protein (whole-cell lysates): mouse epithelial keratinocytes
mouse neutrophils = assay: Neutrophil cultures with live S. aureus ± caspase inhibitors; details: live S. aureus 6 hours, Q-VD-OPH 10 μg/mL, Emricasan 9 μg/mL
human keratinocytes = assay: Human keratinocyte culture (qRT-PCR, immunostaining)
Description: Human and Mouse Keratinocyte Isolation and Culture.
Quantitative real-time PCR (qRT-PCR).
Immunofluorescence, immunocytochemistry, and immunohistochemistry. […] After washing and permeabilization in TBS-T universal buffer (0.2% Triton X-100 in tris-buffered saline), sections were blocked at room-temperature in 5% goat, donkey or fetal bovine serum with 1% bovine serum albumin. […] Following subsequent washing, sections were incubated in fluorescent-dye conjugated secondary antibodies diluted in antibody diluent for 1 hour at room temperature. After final washing, sections were mounted with […] ® Hardset™ Antifade Mounting Medium with DAPI (Vector Laboratories, H-1500) for nuclear staining. Human keratinocytes were prepared similarly, with the exception of antigen retrieval. All slides were imaged using either the DFC365FX (Leica) or Eclipse E-800 (Nikon) at 10×, 20×, and 40× magnifications.

neogenic hair follicles = assay: Wound Induced Hair Neogenesis (WIHN) assay; assay type: in vivo, mice
Description: Wound Induced Hair Neogenesis (WIHN) Assay. All in vivo experimental surgical procedures were performed as previously characterized ^1,2,6-8. In short, after exposure to vaporizing anesthesia (Baxter, Isoflurane) the dorsal side of male and female 3-week-old (21 days) mice were shaved at approximately 8-10 g of weight. Using surgical scissors, approximately 1.26 cm^2×1.25 cm^2 of skin was excised creating wounds deep into the fascia. At 3 days post-wounding, a single dose (50 μl) of 100 μg/mL high molecular weight (HMW) polyinosinic-polycytidylic acid (Poly (I:C)) (Invivogen, tlrl-pic) was administered underneath the scab site via injection in both wild-type and transgenic mice as previously described^2,8. For functional experiments characterizing IL-36 on WIHN, a single dose (50 μl) of 1 μg/mL recombinant mouse IL-36α protein (R&D Systems, 7059-ML/CF) was injected underneath the scab site at 7 days post-wounding. For rescue experiments using the small molecule, broad spectrum pan-caspase inhibitor, 20 ul of 5 mg/mL Q-VD-OPh (in DMSO) was diluted 130 μL of phosphate-buffered saline (PBS) (1.33 mM final concentration) and injected intraperitoneally in mice 24 hours prior to wounding and approximately 10 days after wounding (scab detachment).
Immunofluorescence, immunocytochemistry, and immunohistochemistry.

[2] = no significant differences vs no treatment
[3] = RNase L siRNA transfected human keratinocytes, 10 μg/ml

## C[C@H](NC(=O)C(=O)Nc1ccccc1C(C)(C)C)C(=O)N[C@@H](CC(=O)O)C(=O)COc1c(F)c(F)cc(F)c1F [Emricasan]
BMDMs
  percentages of TNF+ BMDMs: 33.53%
BMDMs; [2]
  viable cells (Zombie UV negative cells): ~80%
[1]
  IL-36α protein (whole-cell lysates): increased
Mouse neutrophils
  percentages of TNF+ neutrophils: 25.47%
Mouse neutrophils; [2]
  viable cells (Zombie UV negative cells): ~50%

## CC(C)(O)c1coc(S(=O)(=O)NC(=O)Nc2c3c(cc4c2CCC4)CCC3)c1 [MCC950]
Human keratinocytes; MCC950 100 μM, further increased by exogenous dsRNA addition
  regeneration (morphogenesis) markers: greater regeneration markers than controls

## COC(=O)CC[C@H](NC(=O)[C@H](Cc1c[nH]c2ccccc12)NC(=O)OCc1ccccc1)C(=O)N[C@@H](Cc1cnc[nH]1)C(=O)N[C@@H](CC(=O)OC)C(=O)CF [Z-WEHD-FMK] (Cbz-WE(OMe)HD(OMe)-CH2F)
[1]; 48 hrs treatment
  IL-36 receptor (IL36r) expression: not affected
  IL-36 receptor antagonist (IL-36m) protein or mRNA levels: not affected
  Tlr3 expression: elevated
  caspase gene mRNA (inflammatory caspases 1 and 4): elevated
[1]
  IL-36α protein (whole-cell lysates): increased

## polyinosinic-polycytidylic acid [poly (I:C)]
Neogenic hair follicles; Il36r^−/− mice
  WIHN (hair follicle regeneration): not responsive
Neogenic hair follicles; Rnasel^−/− mice, poly (I:C) under the scab 3 days post-wounding
  WIHN: intact super-increase
Human keratinocytes; [3]
  differentiation markers: inhibits differentiation markers
  morphogenesis markers: induces multiple morphogenesis markers
[1]; after siRNA-mediated RNase L loss, poly (I:C) 10 μg/ml, 48 hrs
  Il36α and Casp1 levels: boosted

B1: rmIL-36a: recombinant mouse IL-36α protein (R&D Systems, 7059-ML/CF) (protein, UniProt Q9JLA2 8-160, looked up)
Interleukin-36 alpha: RAASPSLRHVQDLSSRVWILQNNILTAVPRKEQTVPVTITLLPCQYLDTLETNRGDPTYMGVQRPMSCLFCTKDGEQPVLQLGEGNIMEMYNKKEPVKASLFYHKKSGTTSTFESAAFPGWFIAVCSKGSCPLILTQELGEIFITDFEMIVVH
Neogenic hair follicles; 50 μl of 1 μg/mL injected underneath the scab at 7 days post-wounding, vs vehicle-treated controls
  increase in the number of neogenic hair follicles: > 2 fold

B2: recombinant IL-36α: recombinant IL-36α used to treat human keratinocytes (protein, UniProt Q9UHA7 6-158, looked up)
Interleukin-36 alpha: KIDTPQQGSIQDINHRVWVLQDQTLIAVPRKDRMSPVTIALISCRHVETLEKDRGNPIYLGLNGLNLCLMCAKVGDQPTLQLKEKDIMDLYNQPEPVKSFLFYHSQSGRNSTFESVAFPGWFIAVSSEGGCPLILTQELGKANTTDFGLTMLF
Human keratinocytes; qRT-PCR
  WNT7B mRNA expression: promotes WNT7B expression
